Each structure is given as a SMILES string. Where two headings read alike, the source gives them in different places.

Data set [1] deals with HepG2 cells. The data set can be described thus: LipidTOX Red PLD assay, qHTS, 1536-well high-content imaging. Type of data set: cell-based, Human. The settings on record: for PLD induction (result in words): HepG2, primary screen and cherry-pick confirmation; for EC50: Homo sapiens, HepG2, 24 h. For orientation: Quantitative high-throughput screening tests each substance at several concentrations.

The next data set relates to hERG channel. Conditions: cited from earlier work.
Data set [2] concerns HepG2 cells. Conditions: cited from earlier work; for EC50: read-out: Literature-Reported EC50.
In a further data set the test system is H4 cells. The settings on record: cited from earlier work.
Another data set relates to Rat brain. Conditions: cited from earlier work.
For a further data set, the system named is isolated lamellar bodies. The settings on record: Binding study; cited from earlier work.
[3] abbreviates: read-out: Confirmation EC50 (PLD induction).
Setting [4] is: read-out: Primary Screen EC50 (PLD induction).

For `CC(C)(C)c1ccc(C(=O)CCCN2CCC(OC(c3ccccc3)c3ccccc3)CC2)cc1` [Ebastine], the “PLD induction (result in words)” value in the data set on HepG2 cells [1] is “significantly induced PLD formation”. Moreover, in the data set with hERG channel, the HERG channel block result is given as “blocking”.

As for `CC(=O)N1CCN(c2ccc(OCC3COC(Cn4ccnc4)(c4ccc(Cl)cc4Cl)O3)cc2)CC1` (centres unmarked) [Ketoconazole], the results for the EC50 in the data set on HepG2 cells [1] (setting [3]) and in the data set with HepG2 cells [1] (setting [4]) were 5.4 ± 2 µM and 2.8 µM, respectively. The “Literature-Reported: Active at (concentration)” value in the data set on HepG2 cells [2] is reported as “Active at 8.3 µM”.

For the compound `Fc1ccc([C@@H]2CCNC[C@H]2COc2ccc3c(c2)OCO3)cc1` [Paroxetine], the “Literature-Reported: Active at (concentration)” value in the data set with H4 cells is on record as “Active at 5 µM”. In the data set on HepG2 cells [1], the “PLD induction (result in words)” value was “induce PLD”. Further, the figures for the EC50 in the data set with HepG2 cells [1] (setting [3]) and with HepG2 cells [1] (setting [4]) were 3 ± 0.7 µM and 5.6 µM, respectively.

For `N=C(N)c1ccc(OCCCCCOc2ccc(C(=N)N)cc2)cc1` [Pentamidine], the figures for the EC50 in the data set with HepG2 cells [1] (setting [3]), in the data set on HepG2 cells [1] (setting [4]) and with HepG2 cells [2] were 2.8 ± 2.4 µM, 1.4 µM and 8.3 µM, respectively.

Take `CCN(CC)CCCC(C)Nc1c2ccc(Cl)cc2nc2ccc(OC)cc12` (centres unmarked) [Quinacrine]: in the data set on HepG2 cells [1], the “PLD induction (result in words)” value was “induce PLD”. The EC50 in the data set on HepG2 cells [1] (setting [3]) was found to be 1 ± 0.2 µM; with HepG2 cells [1] (setting [4]), 5 µM. Besides, in the data set on Rat brain, the “Literature-Reported: Active at (dose)” value is listed as “Active at 60 mg/kg”.

Take `C=C[C@H]1C[N@@]2CC[C@H]1C[C@@H]2[C@@H](O)c1ccnc2ccc(OC)cc12` [Quinidine]: the results for the EC50 in the data set with HepG2 cells [1] (setting [3]), with HepG2 cells [1] (setting [4]) and in the data set with HepG2 cells [2] were 13.4 ± 2 µM, 15.8 µM and 25 µM, respectively.

`CC(CN(C)C)CN1c2ccccc2CCc2ccccc21` (centres unmarked) [Trimipramine]: the “PLD induction (result in words)” value in the data set with HepG2 cells [1] was “induce PLD”. In addition, the EC50 in the data set with HepG2 cells [1] (setting [3]) amounted to 8.7 ± 1.2 µM; in the data set with HepG2 cells [1] (setting [4]), 3.5 µM. In addition, the “Literature-Reported: Active at (concentration)” value in the data set with isolated lamellar bodies is “Active at 1 mM”.

In general, EC50 refers to the concentration needed to bring the measured effect to its halfway point.

The values are drawn from publication PMC4550094 (Journal of biomolecular screening, 2013).
